From PubChem BioAssay (NCI)
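These data come from cells grown in 96-well plates and exposed to compound for 48 hours at five concentrations. The concentration for full growth arrest is given as TGI.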

Columns and labels:
Assay in all cases: NCI anticancer screen, dose series, 48 h
OVCAR-3 ovarian = system: OVCAR-3 ovarian
786-0 renal = system: 786-0 renal
SK-OV-3 ovarian = system: SK-OV-3 ovarian
HS 578T breast = system: HS 578T breast
HCC-2998 colon = system: HCC-2998 colon
SN12C renal = system: SN12C renal
SF-539 CNS = system: SF-539 CNS
HOP-92 NSCLC = system: HOP-92 NSCLC
HOP-62 NSCLC = system: HOP-62 NSCLC
KM12 colon = system: KM12 colon
SK-MEL-2 melanoma = system: SK-MEL-2 melanoma
SF-295 CNS = system: SF-295 CNS
MCF7 breast = system: MCF7 breast
UACC-257 melanoma = system: UACC-257 melanoma
NCI-H522 lung = system: NCI-H522 lung
ACHN renal = system: ACHN renal
MDA-MB-231 breast = system: MDA-MB-231 breast
OVCAR-8 ovarian = system: OVCAR-8 ovarian
EKVX NSCLC = system: EKVX NSCLC
SW-620 colon = system: SW-620 colon

SMILES | TGI (OVCAR-3 ovarian) | TGI (786-0 renal) | TGI (SK-OV-3 ovarian) | TGI (HS 578T breast) | TGI (HCC-2998 colon) | TGI (SN12C renal) | TGI (SF-539 CNS) | TGI (HOP-92 NSCLC) | TGI (HOP-62 NSCLC) | TGI (KM12 colon) | TGI (SK-MEL-2 melanoma) | TGI (SF-295 CNS) | TGI (MCF7 breast) | TGI (UACC-257 melanoma) | TGI (NCI-H522 lung) | TGI (ACHN renal) | TGI (MDA-MB-231 breast) | TGI (OVCAR-8 ovarian) | TGI (EKVX NSCLC) | TGI (SW-620 colon)
CC1=NN(C(=O)CC(=O)Nc2cccc(C)c2)C(=O)C1N=Nc1ccc(S(=O)(=O)c2ccc(N=NC3C(=O)N(C(=O)CC(=O)Nc4cccc(C)c4)N=C3C)cc2)cc1 (stereo not given) | > 100 µM | > 100 µM | > 100 µM | > 100 µM | > 100 µM | > 100 µM | > 100 µM | > 100 µM | > 100 µM | > 100 µM | > 100 µM | > 100 µM | > 100 µM | > 100 µM | > 100 µM | > 100 µM | > 100 µM | > 100 µM | > 100 µM | > 100 µM
CN(C)CCNC1=CC(=O)c2nc3ccccc3c3ccnc1c23 | 16.4 µM | 15.6 µM | 29.4 µM | 24.5 µM | 16.8 µM | 20.3 µM | 15.5 µM | 60.9 µM | 25.6 µM | 17.4 µM | 20.7 µM | 19.8 µM | 16.3 µM | 22.6 µM | 16.2 µM | 15 µM | 16 µM | 37.5 µM | 14.3 µM | 18 µM
CCCC(=O)NC(C(=O)OCC)(N1CCOCC1)C(F)(F)F (stereo not given) | > 100 µM | > 100 µM | > 100 µM | > 100 µM | > 100 µM | > 100 µM | > 100 µM | > 100 µM | > 100 µM | > 100 µM | > 100 µM | > 100 µM | > 100 µM | > 100 µM | > 100 µM | > 100 µM | > 100 µM | > 100 µM | > 100 µM | > 100 µM
OCCCc1cc(O)c2c(c1)C(CO)C(c1ccc(O)c(O)c1)O2 (stereo not given) | > 100 µM | > 100 µM | > 100 µM | > 100 µM | > 100 µM | > 100 µM | > 100 µM | > 100 µM | > 100 µM | > 100 µM | > 100 µM | > 100 µM | > 100 µM | > 100 µM | > 100 µM | > 100 µM | > 100 µM | > 100 µM | > 100 µM | > 100 µM
COc1cc([C@H]2CC(=O)C[C@@H](c3cc(OC)c(OC)c(OC)c3)C23C(=O)c2ccccc2C3=O)cc(OC)c1OC | > 100 µM | > 100 µM | > 100 µM | > 100 µM | > 100 µM | > 100 µM | > 100 µM | > 100 µM | > 100 µM | > 100 µM | > 100 µM | > 100 µM | > 100 µM | > 100 µM | > 100 µM | > 100 µM | > 100 µM | > 100 µM | > 100 µM | > 100 µM
Cc1ccc2c(c1)C(C1Cc3cccc(C)c3C1=O)OC2=O (stereo not given) | > 100 µM | > 100 µM | > 100 µM | > 100 µM | > 100 µM | > 100 µM | > 100 µM | > 100 µM | > 100 µM | > 100 µM | > 100 µM | > 100 µM | > 100 µM | > 100 µM | > 100 µM | > 100 µM | > 100 µM | > 100 µM | > 100 µM | > 100 µM
C/C(=N\Nc1nc2ccccc2s1)c1cnccn1 | 17.4 µM | > 100 µM | > 27.7 µM | 20 µM | 31.9 µM | > 80.8 µM | 36.7 µM | > 28.3 µM | > 54.8 µM | 15.2 µM | 49.9 µM | > 23.5 µM | 20.2 µM | > 100 µM | 2.92 µM | 21.1 µM | > 88.1 µM | 5.86 µM | 5 µM | > 100 µM
COC(=O)C1(Cc2cccc(C)c2)Cc2c(C)cccc2C1=O (stereo not given) | > 100 µM | > 100 µM | > 100 µM | > 100 µM | > 100 µM | > 100 µM | > 100 µM | > 100 µM | > 100 µM | > 100 µM | > 100 µM | > 100 µM | 90.8 µM | > 100 µM | 73.3 µM | > 100 µM | > 100 µM | > 100 µM | > 100 µM | > 100 µM
O=[N+]([O-])C(=C(N1CCCCC1)N1CCCCC1)/C(Cl)=C(\Cl)[N+](=O)[O-] | 10.7 µM | 10.2 µM | > 59.8 µM | 11.6 µM | 55.6 µM | 4.8 µM | 25.8 µM | 6.6 µM | 31.4 µM | 41.7 µM | 35.1 µM | 46 µM | 7.06 µM | 15.5 µM | 3.37 µM | 9.24 µM | 14.8 µM | 23.2 µM | 30 µM | 28.7 µM
COc1cc(C2S/C(=C/c3ccccc3)C(=O)N2c2cc(Cl)c(Cl)cc2Cl)cc(OC)c1OC (stereo not given) | > 100 µM | > 100 µM | > 100 µM | > 57 µM | > 100 µM | > 100 µM | > 100 µM | > 74.6 µM | > 100 µM | > 78.3 µM | > 100 µM | > 100 µM | > 100 µM | > 100 µM | > 66.5 µM | > 100 µM | > 100 µM | > 100 µM | > 88.6 µM | > 100 µM
CN(C)C(=S)N/N=C(\C(=N/NC(=S)N(C)C)c1ccccn1)c1ccccn1 | 14.6 µM | 27 µM | 30.4 µM | > 46 µM | 37.5 µM | 20.3 µM | > 100 µM | 22.1 µM | 38.7 µM | 33.6 µM | 36.7 µM | 29.6 µM | > 48.7 µM | 50 µM | 9.26 µM | 20.1 µM | 43.1 µM | 77.7 µM | 36.7 µM | 29.9 µM
NC(=NCCN1CCCCCCC1)NO | > 100 µM | > 100 µM | > 100 µM | > 100 µM | > 100 µM | > 100 µM | > 100 µM | > 100 µM | > 100 µM | > 100 µM | > 100 µM | > 100 µM | > 100 µM | > 100 µM | > 100 µM | 43.4 µM | > 100 µM | > 100 µM | > 100 µM | > 100 µM
